19 compounds from ChEMBL document CHEMBL1130169, “Validation of EGSITE2, a mixed integer program for deducing objective site models for experimental binding data” (J Med Chem, 1997) can be followed below.

For this experiment, the target named is T1, Sex hormone-binding globulin (Homo sapiens) (UniProt P04278).
T1 sequence (whole entry): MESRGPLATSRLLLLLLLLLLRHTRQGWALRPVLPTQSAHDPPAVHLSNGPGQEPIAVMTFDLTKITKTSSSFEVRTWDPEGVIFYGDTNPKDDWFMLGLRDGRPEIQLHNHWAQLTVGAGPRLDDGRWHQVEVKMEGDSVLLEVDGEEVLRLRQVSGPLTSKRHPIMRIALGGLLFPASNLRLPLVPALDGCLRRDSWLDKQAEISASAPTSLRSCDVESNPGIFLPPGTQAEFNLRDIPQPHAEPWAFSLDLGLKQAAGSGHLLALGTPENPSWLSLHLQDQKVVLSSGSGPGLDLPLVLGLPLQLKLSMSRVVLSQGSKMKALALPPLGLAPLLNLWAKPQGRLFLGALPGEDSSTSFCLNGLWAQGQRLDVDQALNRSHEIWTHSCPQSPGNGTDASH
Description: Binding affinity towards human testosterone binding globulin.
In the case of `CC(=O)[C@H]1CC[C@H]2[C@@H]3CCC4=CC(=O)CC[C@]4(C)[C@H]3CC[C@]12C`, the -Log Kdiss turned out to be 5.94. Next, `C[C@]12CC[C@H](O)C[C@@H]1CC[C@@H]1[C@@H]2CC[C@]2(C)[C@@H](O)CC[C@@H]12`: 8.11.

For `C[C@]12CCC(=O)C=C1CC[C@@H]1[C@@H]2[C@@H](O)C[C@@]2(C)[C@H]1CC[C@]2(O)C(=O)CO`, the -Log Kdiss stood at 5.2. Take `C[C@]12CC[C@@H]3c4ccc(O)cc4CC[C@H]3[C@@H]1C[C@@H](O)[C@@H]2O`: the -Log Kdiss worked out at 5.63. Take `C[C@]12CC[C@H](O)CC1=CCC1C2CC[C@]2(C)C(=O)CCC12` (some centres undefined): the -Log Kdiss worked out at 6.82. As for `CC(=O)[C@@]1(O)CC[C@H]2[C@@H]3CCC4=CC(=O)CC[C@]4(C)[C@H]3CC[C@@]21C`, the figure is 6; as for `C[C@]12CC[C@@H](O)C[C@@H]1CC[C@@H]1[C@@H]2CC[C@]2(C)C(=O)CC[C@@H]12`, 6.15; as for `C[C@]12CC[C@H]3[C@@H](CCC4=CC(=O)CC[C@@]43C)[C@@H]1CC[C@@H]2O`, 8.2. `CC(=O)[C@H]1CC[C@H]2[C@@H]3CC=C4C[C@@H](O)CC[C@]4(C)[C@H]3CC[C@]12C` registered a -Log Kdiss of 6.15.

`C[C@]12CCC(=O)C=C1CC[C@@H]1[C@@H]2CC[C@@]2(C)[C@H]1CC[C@]2(O)C(=O)CO` showed a -Log Kdiss of 6.2. For the compound `CC(=O)[C@@]1(O)CC[C@H]2[C@@H]3CC=C4C[C@@H](O)CC[C@]4(C)[C@H]3CC[C@@]21C`, the -Log Kdiss was 5.36. As for `C[C@]12CC[C@H]3[C@@H](CCC4=CC(=O)CC[C@@]43C)[C@@H]1CC[C@@H]2C(=O)CO`, the -Log Kdiss is 6.38. Next, `C[C@]12CCC(=O)C=C1CC[C@@H]1[C@@H]2CC[C@]2(C)C(=O)CC[C@@H]12`: 6.46. As for `C[C@]12CCC(=O)C=C1CC[C@@H]1[C@@H]2C(=O)C[C@@]2(C)[C@H]1CC[C@]2(O)C(=O)CO`, the figure is 5.43; as for `C[C@]12CC[C@@H]3c4ccc(O)cc4CCC3[C@@H]1CCC2=O` (single isomer, unassigned), 7.18.

For `C[C@]12CCC3C(CC[C@@H]4CC(O)=CC[C@]34C)C1CCC2=O` (some centres undefined), the -Log Kdiss is 5.15.

Take `C[C@]12C[C@H](O)[C@H]3[C@@H](CCC4=CC(=O)CC[C@@]43C)[C@@H]1CC[C@@H]2C(=O)CO`: the -Log Kdiss was determined as 5.34.

Compound `C[C@]12CCC(=O)C[C@@H]1CC[C@@H]1[C@@H]2CC[C@]2(C)[C@@H](O)CC[C@@H]12` registered a -Log Kdiss of 8.74.

For the compound `C[C@]12CCC(=O)C=C1CCC1C3CC[C@H](C(=O)CO)[C@@]34C[C@H](OC4O)C12` (some centres undefined), the -Log Kdiss was found to be 4.32.
